Columns and labels:
[1] = system: HCC1954 human breast cancer cells; test: Inhibition of growth of a Her2-targeted agent resistant Her2+ cell line, DAPI nuclei count; type: cell-based; details: for resistance of the cell line to the agent used individually: HCC1954, as compared to SkBr3; for growth inhibitory effect (FIGS. 4A-B, 5A-B), in words: HCC1954, 6 days, IRX4204 10, 100 or 1000 nM
Method: HCC1954 is Her2^+ cancer cell line derived from a ductal carcinoma of the breast.
HCC1954 human breast cancer cells were seeded at 3000 cells per well in 96-well plates and treated with neratinib [1 or 10 nM] or DMSO (0.1%) in combination with IRX4204 [10, 100, or 1000 nM]. After 6 days of treatment, cells were fixed with 4% paraformaldehyde. Nuclei were stained with DAPI, imaged using ImageXpress® Pico (Molecular Devices) and counted using CellReporterXpress® Analysis Software (FIGS. 4A-B) Each data point represents six replicates. Statistical significance was determined using the Bonferroni-Dunn method of multiple t-tests. Each day was analyzed individually, without assuming a consistent SD (*p<0.01).
The experiment was also conducted using tucatinib or lapatinib in place of neratinib.

HCC1954 = test: IC50 of Her2 kinase inhibitors on Her2-amplified cell lines; type: cell-based; details: Homo sapiens
SkBr3 = test: as above; type: cell-based; details: Homo sapiens, SK-BR-3
SkBr3 cells = test: Inhibition of breast cancer cell growth, DAPI nuclei count; type: cell-based; details: for inhibition at 1 µM: Homo sapiens; for inhibition at 1 µM / DAPI Nuclei Count: SkBr3 cells, IRX4204 1000 nM
Description: MCF7 is an ER^+ PR^+ Her2^− cell line. SkBr3 is an ER^− PR^− Her2^+ cell line. […] After a further 6 days, the cells were fixed with 4% paraformaldehyde in phosphate buffered saline (PBS). Nuclei were then stained with DAPI and imaged with the MetaXpress® microscope (Molecular Devices, San Jose, CA). Cell nuclei were segmented and then counted by defining pixel intensity over background and object size, using the algorithm of the MetaXpress® image analysis software. […]

BT474 cells = test: as above; type: cell-based; details: IRX4204 1000 nM; for inhibition at 1 µM: Homo sapiens
Description: (§1) MCF7 is an ER^+ PR^+ Her2^− cell line. SkBr3 is an ER^− PR^− Her2^+ cell line. […] After a further 6 days, the cells were fixed with 4% paraformaldehyde in phosphate buffered saline (PBS). Nuclei were then stained with DAPI and imaged with the MetaXpress® microscope (Molecular Devices, San Jose, CA). Cell nuclei were segmented and then counted by defining pixel intensity over background and object size, using the algorithm of the MetaXpress® image analysis software. Experimental data points were performed at a minimum of quadruplicate, and results were reported as average cell count ±standard deviation (SD).
(§2) To assess if this improved growth inhibition effect was synergistic, the percent inhibition observed for the highest concentrations of the combined therapeutic agents was compared to the percent inhibition that would be expected for the combination based on the observed inhibition of the therapeutic agents used alone, if the agents acting independently, that is, without interaction (see Table 1). That is, PAE=(FE1+((1−FE1)×FE2))×100, where PAE is the predicted additive effect, FE1 is the observed fractional effect of a 1st treatment, and FE2 is the observed fractional effect of a 2nd treatment.
(§3) Additionally the panel of breast cancer cell lines was expanded to also include the ER^+ PR^+ Her2^+ cell line BT474 and the ER^+ PR^− Her2^+ cell line MDA-MB-361.
(§4) To assess if this improved growth inhibition effect was synergistic, the percent inhibition observed for the highest concentrations of the combined therapeutic agents was compared to the percent inhibition that would be expected for the combination based on the observed inhibition of the therapeutic agents used alone, if the agents acting independently, that is, without interaction (see Tables 2-4).

MDA-MB-361 cells = test: as above; type: cell-based; details: IRX4204 1000 nM; for inhibition at 1 µM: Homo sapiens
Description: as §1, §2, §3, §4

AU565 = test: IC50 of Her2 kinase inhibitors on Her2-amplified cell lines; type: cell-based; details: Homo sapiens
[2] = system: PPAR/RXR, FXR/RXR, or LXR/RXR; details: cited from earlier work
MCF7 cells = test: Inhibition of breast cancer cell growth, DAPI nuclei count; type: cell-based; details: Her2− MCF7 cells; IRX4204 0-1000 nM, trastuzumab 0-10 μg/ml; 6 days
Description: MCF7 is an ER^+ PR^+ Her2^− cell line. SkBr3 is an ER^− PR^− Her2^+ cell line. […] After a further 6 days, the cells were fixed with 4% paraformaldehyde in phosphate buffered saline (PBS). Nuclei were then stained with DAPI and imaged with the MetaXpress® microscope (Molecular Devices, San Jose, CA). Cell nuclei were segmented and then counted by defining pixel intensity over background and object size, using the algorithm of the MetaXpress® image analysis software.
as §3

RAR/RXR = test: Activation of non-permissive RXR heterodimers
Nurr1/RXR heterodimer = test: Activation of permissive RXR heterodimers
PPAR/RXR = test: Activation of permissive RXR heterodimers
FXR/RXR = test: Activation of permissive RXR heterodimers
LXR/RXR = test: Activation of permissive RXR heterodimers
RXR homodimers = test: Activation of RXR homodimers
[3] = SK-BR-3, lapatinib experiment, Lapatinib 1000 nM
[4] = lapatinib experiment, Lapatinib 1000 nM, control 19855
[5] = BT-474, lapatinib experiment, Lapatinib 1000 nM
[6] = lapatinib experiment, Lapatinib 1000 nM, control 2937
[7] = MDA-MB-361 cells, lapatinib experiment, Lapatinib 1000 nM, control 6696
[8] = SK-BR-3, neratinib experiment, Neratinib 1000 nM
[9] = neratinib experiment, Neratinib 1000 nM, control 6696
[10] = BT-474, neratinib experiment, Neratinib 1000 nM
[11] = neratinib experiment, Neratinib 1000 nM, control 2192
[12] = MDA-MB-361 cells, neratinib experiment, Neratinib 1000 nM, control 5297

| IC50 (HCC1954) | IC50 (SkBr3) | Structure (SMILES) | resistance of the cell line to the agent used individually [1] | growth inhibitory effect (FIGS. 4A-B, 5A-B), in words [1] | inhibition at 1 µM (SkBr3 cells; [3]) | DAPI Nuclei Count (SkBr3 cells; [4]) | inhibition at 1 µM (BT474 cells; [5]) | DAPI Nuclei Count (BT474 cells; [6]) | DAPI Nuclei Count (MDA-MB-361 cells; [7]) | IC50 (AU565) | inhibition at 1 µM (SkBr3 cells; [8]) | DAPI Nuclei Count (SkBr3 cells; [9]) | inhibition at 1 µM (BT474 cells; [10]) | DAPI Nuclei Count (BT474 cells; [11]) | DAPI Nuclei Count (MDA-MB-361 cells; [12]) | other results |
| --- | --- | --- | --- | --- | --- | --- | --- | --- | --- | --- | --- | --- | --- | --- | --- | --- |
| > 2000 nM | 22 nM | Cc1cc(Nc2ncnc3ccc(NC4=NC(C)(C)CO4)cc23)ccc1Oc1ccn2ncnc2c1 [Tucatinib] | resistant | some small effect |  |  |  |  |  |  |  |  |  |  |  |  |
| > 1400 nM | 152 nM | CS(=O)(=O)CCNCc1ccc(-c2ccc3ncnc(Nc4ccc(OCc5cccc(F)c5)c(Cl)c4)c3c2)o1 [Lapatinib, reference compound] | resistant | some small effect | 88.9% | 2211 | 58.8% | 1211 | 903 | 294 nM |  |  |  |  |  | inhibition at 1 µM (MDA-MB-361 cells; MDA-MB-361 cells, lapatinib experiment, Lapatinib 1000 nM): 86.5% |
|  |  | Cc1cc2c(cc1C1(c3ccc(C(=O)O)cn3)CC1)C(C)(C)CCC2(C)C [LGD268] |  |  |  |  |  |  |  |  |  |  |  |  |  | activation of one or more of PPAR/RXR, FXR/RXR, or LXR/RXR, in words [2]: activates |
|  |  | CC(/C=C/[C@@H]1C[C@]1(C)c1ccc2c(c1)C(C)(C)CCC2(C)C)=C\C(=O)O [IRX4204, 3,7-dimethyl-6(S),7(S)-methano,7-[1,1,4,4-tetramethyl-1,2,3,4-tetrahydron-aphth-7-yl]2(E), 4(E) heptadienoic acid] | highly resistant | no growth inhibitory effect | 4.8% | 18906 | -15.7% | 3399 | 5218 |  | 22.1% | 5218 | 6.8% | 2043 | 2459 | growth inhibitory effect (FIG. 1B), in words (SkBr3 cells; Her2+ SkBr3 cells, IRX4204 0-1000 nM, trastuzumab 0-10 μg/ml, 6 days): moderate growth inhibitory effect; inhibition at 1 µM (SkBr3 cells; SK-BR-3, 144 h, 6 days, Herceptin 1000 ng, alone or combined): 29.4%; DAPI Nuclei Count (SkBr3 cells; 6 days, Herceptin 1000 ng, alone or combined, control 25958): 18274; growth inhibitory effect (FIG. 1A), in words (MCF7 cells): neither agent had more than marginal effect; inhibition at 1 µM (MDA-MB-361 cells; MDA-MB-361, MDA-MB-361 cells, lapatinib experiment, Lapatinib 1000 nM): 22.1%; inhibition at 1 µM (MDA-MB-361 cells; MDA-MB-361, MDA-MB-361 cells, neratinib experiment, Neratinib 1000 nM): 43.6%; activation of heterodimer, in words (RAR/RXR): does not activate; activation of heterodimer, in words (Nurr1/RXR heterodimer): specifically activates; activation of heterodimer, in words (PPAR/RXR): does not activate; activation of heterodimer, in words (FXR/RXR): does not activate; activation of heterodimer, in words (LXR/RXR): does not activate; activation of RXR homodimers, in words (RXR homodimers): specifically activate |

| Structure (SMILES) | IC50 (HCC1954) | IC50 (SkBr3) | resistance of the cell line to the agent used individually [1] | growth inhibitory effect (FIGS. 4A-B, 5A-B), in words [1] | inhibition at 1 µM (SkBr3 cells; [3]) | DAPI Nuclei Count (SkBr3 cells; [4]) | inhibition at 1 µM (BT474 cells; [5]) | DAPI Nuclei Count (BT474 cells; [6]) | DAPI Nuclei Count (MDA-MB-361 cells; [7]) | IC50 (AU565) | inhibition at 1 µM (SkBr3 cells; [8]) | DAPI Nuclei Count (SkBr3 cells; [9]) | inhibition at 1 µM (BT474 cells; [10]) | DAPI Nuclei Count (BT474 cells; [11]) | DAPI Nuclei Count (MDA-MB-361 cells; [12]) | other results |
| --- | --- | --- | --- | --- | --- | --- | --- | --- | --- | --- | --- | --- | --- | --- | --- | --- |
| CCOc1cc2ncc(C#N)c(Nc3ccc(OCc4ccccn4)c(Cl)c3)c2cc1NC(=O)/C=C/CN(C)C [Neratinib, reference compound] | > 100 nM | 7 nM | resistant |  |  |  |  |  |  | 20 nM | 86.5% | 903 | 91.8% | 180 | 249 | inhibition at 1 µM (MDA-MB-361 cells; MDA-MB-361 cells, neratinib experiment, Neratinib 1000 nM): 95.3% |

— patent US20240293349A1, “USE OF AN RXR AGONIST IN TREATING DRUG RESISTANT HER2+ CANCERS” (Io Therapeutics, Inc., priority 2022, published 2024)
